# In US11931372B2, “Pharmaceutical composition containing pentacyclic triterpenoids” (SPV TIMSER, S.A.P.I. DE C.V., priority 2021, dated 2024):
# Where two headings read alike, the source gives them in different places.
# Columns and labels:
# [1] = system: murine respiratory tract tissue; details: mouse, in vivo, 14 days
# [2] = Pharmacokinetic study in healthy volunteers, inhaled route by nebulizer; type: in vivo, human; details: GA by inhalation, FIGS. 13 and 14
# Description: Alternative tests were conducted to verify the synergistic behavior of the compositions of interest. For this reason, the results of pharmacokinetic studies are described and disclosed herein below. The study was based on the application of different versions of the herein claimed pharmaceutical composition to healthy volunteers by the inhaled route of administration, by means of a nebulizer device. The volunteers were given the drug once every 24 hours for three days. In addition, blood samples were taken from them at different time points. These samples were analyzed to quantify glycyrrhizinic acid (GA) and Enoxolone (EN) contents through the mass coupled HPLC methodology. […]
# Blood samples of 5 mL were taken from each of the individuals at 30 minutes and at 1, 2, 3, 6, 12, 24, 48, 72 and 96 hours after drug administration. Then, the AG and EN concentrations in these blood samples were determined using the mass coupled HPLC methodology. In all cases, both components were quantified.
# The following tables denote pharmacokinetic results (Area Under the Curve (AUC)) of the two drugs assessed (GA and EN). The Area Under the Curve (AUC) is a parameter related to the drug quantity to which the body has been exposed. […] The AUC was calculated using the R programming language within the “PK” software bundle. […]
# [3] = system: SARS-CoV; details: culture cells; cited from earlier work
# [4] = 75 mg of GA administered orally; cited from earlier work
# [5] = system: murine respiratory tract tissue; assay: Toxicity and irritability assay by the inhaled route in murine rodents, histopathological lesion score; details: for Degenerative: Alveolar lesion score / Degenerative: Bronchial lesion score / Degenerative: Bronchiolar lesion score / Fibrosis: Alveolar Septa lesion score / Fibrosis: Peribronchial lesion score / Fibrosis: Peribronchiolar lesion score / Inflammatory: Bronchiolitis lesion score / Inflammatory: Bronchitis lesion score / Inflammatory: Hyaline Membrane lesion score / Inflammatory: Interstitial Pneumonia lesion score / Inflammatory: Vasculitis lesion score / Necrosis: Alveolar lesion score / Necrosis: Bronchial lesion score / Necrosis: Bronchiolar lesion score / Vascular: Alveolar edema lesion score / Vascular: Congestion lesion score / Vascular: Hemorrhage lesion score / Vascular: Interstitial edema lesion score / Vascular: Thrombosis lesion score / TOTAL damage and lesion rating: inhaled 10 min/day for 14 days; for Degenerative: Alveolar lesion score / Degenerative: Bronchial lesion score / Degenerative: Bronchiolar lesion score / Fibrosis: Alveolar Septa lesion score / Fibrosis: Peribronchial lesion score / Fibrosis: Peribronchiolar lesion score / Inflammatory: Bronchiolitis lesion score / Inflammatory: Bronchitis lesion score / Inflammatory: Hyaline Membrane lesion score / Inflammatory: Interstitial Pneumonia lesion score / Inflammatory: Vasculitis lesion score / Necrosis: Alveolar lesion score / Necrosis: Bronchial lesion score / Necrosis: Bronchiolar lesion score / Vascular: Alveolar edema lesion score / Vascular: Congestion lesion score / Vascular: Hemorrhage lesion score / Vascular: Interstitial edema lesion score / Vascular: Thrombosis lesion score: score 0-5; for TOTAL damage and lesion rating: sum of scores
compound,measurement,setting,value
"CC1(C)[C@@H](O)CC[C@]2(C)[C@H]3C(=O)C=C4[C@@H]5C[C@@](C)(C(=O)O)CC[C@]5(C)CC[C@@]4(C)[C@]3(C)CC[C@@H]12 [EN, 18-β glycyrrhetinic acid]",Degenerative: Alveolar lesion score,[1],0
same,Fibrosis: Alveolar Septa lesion score,[1],0
same,Fibrosis: Peribronchial lesion score,[1],0
same,Fibrosis: Peribronchiolar lesion score,[1],0
same,Inflammatory: Bronchiolitis lesion score,[1],0
same,Inflammatory: Bronchitis lesion score,[1],0
same,Inflammatory: Hyaline Membrane lesion score,[1],0
same,Inflammatory: Vasculitis lesion score,[1],0
same,Necrosis: Alveolar lesion score,[1],0
same,Necrosis: Bronchial lesion score,[1],0
same,Necrosis: Bronchiolar lesion score,[1],0
same,Vascular: Alveolar edema lesion score,[1],0
same,Vascular: Congestion lesion score,[1],2
same,Vascular: Hemorrhage lesion score,[1],1
same,Vascular: Thrombosis lesion score,[1],0
"CC1(C)[C@@H](O[C@H]2O[C@H](C(=O)O)[C@@H](O)[C@H](O)[C@H]2O[C@@H]2O[C@H](C(=O)O)[C@@H](O)[C@H](O)[C@H]2O)CC[C@]2(C)[C@H]3C(=O)C=C4[C@@H]5C[C@@](C)(C(=O)O)CC[C@]5(C)CC[C@@]4(C)[C@]3(C)CC[C@@H]12 [GA, glycyrrhizic acid]",Time of initial peak value,[2],60 min
same,Inhibition of SARS-CoV replication,[3],prevented virus replication in culture cells
same,EN concentration obtained by oral administration,[4],200.3 ng/mL
same,Degenerative: Alveolar lesion score,[5]; High dosage,0
same,Degenerative: Bronchial lesion score,[5]; High dosage,1
same,Degenerative: Bronchiolar lesion score,[5]; High dosage,1
same,Fibrosis: Alveolar Septa lesion score,[5]; High dosage,0
same,Fibrosis: Peribronchial lesion score,[5]; High dosage,0
same,Fibrosis: Peribronchiolar lesion score,[5]; High dosage,0
same,Inflammatory: Bronchiolitis lesion score,[5]; High dosage,0
same,Inflammatory: Bronchitis lesion score,[5]; High dosage,0
same,Inflammatory: Hyaline Membrane lesion score,[5]; High dosage,0
same,Inflammatory: Interstitial Pneumonia lesion score,[5]; High dosage,3.5
same,Inflammatory: Vasculitis lesion score,[5]; High dosage,0
same,Necrosis: Alveolar lesion score,[5]; High dosage,0
same,Necrosis: Bronchial lesion score,[5]; High dosage,1
same,Necrosis: Bronchiolar lesion score,[5]; High dosage,0
same,Vascular: Alveolar edema lesion score,[5]; High dosage,0
same,Vascular: Congestion lesion score,[5]; High dosage,2
same,Vascular: Hemorrhage lesion score,[5]; High dosage,2
same,Vascular: Interstitial edema lesion score,[5]; High dosage,2
same,Vascular: Thrombosis lesion score,[5]; High dosage,0
same,TOTAL damage and lesion rating,[5]; High dosage,12.5
same,Degenerative: Alveolar lesion score,[5]; Low dosage,0
same,Degenerative: Bronchial lesion score,[5]; Low dosage,0.5
same,Degenerative: Bronchiolar lesion score,[5]; Low dosage,0.5
same,Fibrosis: Alveolar Septa lesion score,[5]; Low dosage,0
same,Fibrosis: Peribronchial lesion score,[5]; Low dosage,0
same,Fibrosis: Peribronchiolar lesion score,[5]; Low dosage,0
same,Inflammatory: Bronchiolitis lesion score,[5]; Low dosage,0
same,Inflammatory: Bronchitis lesion score,[5]; Low dosage,0
same,Inflammatory: Hyaline Membrane lesion score,[5]; Low dosage,0
same,Inflammatory: Interstitial Pneumonia lesion score,[5]; Low dosage,3
same,Inflammatory: Vasculitis lesion score,[5]; Low dosage,0
same,Necrosis: Alveolar lesion score,[5]; Low dosage,0
same,Necrosis: Bronchial lesion score,[5]; Low dosage,0
same,Necrosis: Bronchiolar lesion score,[5]; Low dosage,0
same,Vascular: Alveolar edema lesion score,[5]; Low dosage,0
same,Vascular: Congestion lesion score,[5]; Low dosage,2
same,Vascular: Hemorrhage lesion score,[5]; Low dosage,3
same,Vascular: Interstitial edema lesion score,[5]; Low dosage,1
same,Vascular: Thrombosis lesion score,[5]; Low dosage,0
same,TOTAL damage and lesion rating,[5]; Low dosage,10
same,Effect on basal lesions (in words),[5]; increases according to the amount of administered drug,generation of additional lesions to the basal lesions
